Assay results taken from article PMC6270845, “Fluorescent Probes for Insect Ryanodine Receptors: Candidate Anthranilic Diamides” (Molecules, 2014).
Several values for one entry are separate records, joined by “and”; a condition that tells them apart may be missing. Identical values can stand only once. Like-named read-outs stand apart in the source and are kept apart here.

Columns and labels:
[1] = tested on: Plutella larvae; assay: Insecticidal activity, leaf-dip bioassay; conditions: fourth instar larvae, cabbage leaf-dip, mortality after 96 h
[2] = target: T1, house fly thoracic muscle RyR (Musca domestica, UniProt A0A9J7DBA3); assay: Inhibition of [3H]Chlo binding in Musca RyR radioligand assay; conditions: Musca muscle membrane, 1 nM [3H]Chlo, 2 h at 37 °C
Experimental: (§1) [^3H]Ry (95 Ci/mmol, Perkin-Elmer Life Sciences, Boston, MA, USA) and [^3H]Chlo (78 Ci/mmol) were used in RyR binding assays with house fly thorax muscle membranes as reported earlier. Adults emerging from pupae obtained from Benzon Research (Carlisle, PA, USA) were used to collect the thoraces for membrane preparation. The following two buffers were used: (A) 10 μM phenylmethanesulfonyl fluoride, 0.8% bovine serum albumin, and 303 mM sucrose in 20 mM Tris-maleate, pH 7.0; and (B) 0.8 mM CaCl2, 2 mM ATP·Mg^2+ salt, and 1.5 M KCl in 10 mM Hepes, pH 7.4. Incubation mixtures were prepared by sequential addition to culture tubes of 200 μL of buffer B, 200 μL of buffer A containing thorax muscle membranes (200 μg protein) and then ethanol (5 μL) containing [^3H]Ry or [^3H]Chlo to give a final radioligand concentration of 1 nM. Finally, test compounds were added in 5 μL ethanol to give the specified concentrations of Fluor-Cl and Fluor-CN. Following incubation for 2 h at 37 °C, the mixtures were filtered through GF/B filters (Whatman, presoaked in ice-cold washing buffer) immediately after dilution with 5 mL of ice-cold washing buffer (150 mM KCl, 10 mM Hepes, pH 7.4). Each assay tube was further rinsed twice with 5 mL of ice-cold washing buffer, and the rinses were passed through the same filter. […] Binding data were analyzed and plotted by GraphPad Prism 5.0. […]

[3] = target: T1, house fly thoracic muscle RyR; assay: Stimulation of [3H]Ry binding in Musca RyR radioligand assay; conditions: Musca muscle membrane, 1 nM [3H]Ry, 2 h at 37 °C
Experimental: as §1

[4] = target: T1, house fly thoracic muscle RyR; design: method as in PMID 22856329; conditions: read-out: Stimulation of [3H]Ry binding (EC50), reported value; cited from earlier work
[5] = target: T1, house fly thoracic muscle RyR; design: method as in PMID 22856329; conditions: read-out: Inhibition of [3H]Chlo binding (IC50), reported value; cited from earlier work

Row | IC50 [2] | EC50 [3] | SMILES | LC50 (95%CL) [1] | EC50 [4] | IC50 [5]
1 | – | – | C#CCNC(=O)c1cc(C#N)cc(C)c1NC(=O)c1cc(Br)nn1-c1ncccc1Cl [Prop-CN, 3-bromo-N-(4-cyano-2-methyl-6-(prop 2-ynylcarbamoyl)phenyl)-1-(3-chloropyridin-2-yl)-1H-pyrazole-5-carboxamide] | 0.34(0.24–0.43) ppm | – | –
2 | 34 to 39 nM and 39 nM | 5 to 7 nM and 5 nM | Cc1cc(C#N)cc(C(=O)NCc2cn(-c3cc4ccc(O)cc4oc3=O)nn2)c1NC(=O)c1cc(Br)nn1-c1ncccc1Cl [Fluor-CN, 3-Bromo-1-(3-chloropyridin-2-yl)-N-(4-cyano-2-((1-(7-hydroxy-2-oxo-2H-chromen-3-yl)-1H-1,2,3-triazol-4-yl)methylcarbamoyl)-6-methylphenyl)-1H-pyrazole-5-carboxamide] | 7.57(4.57–11.77) ppm | – | –
3 | – | – | Cc1cc(C(F)(C(F)(F)F)C(F)(F)F)ccc1NC(=O)c1cccc(I)c1C(=O)NC(C)(C)CS(C)(=O)=O [Flu, flubendiamide, reference compound] | 0.056(0.037–0.068) ppm | – | –
4 | – | – | CNC(=O)c1cc(C#N)cc(C)c1NC(=O)c1cc(Br)nn1-c1ncccc1Cl [Cyan, cyantraniliprole] | 0.061(0.035–0.086) ppm | 3 to 15 nM | 6 to 14 nM
5 | – | – | C#CCNC(=O)c1cc(Cl)cc(C)c1NC(=O)c1cc(Br)nn1-c1ncccc1Cl [Prop-Cl, 3-Bromo-N-(4-chloro-2-methyl-6-(prop-2-ynylcarbamoyl)phenyl)-1-(3-chloropyridin-2-yl)-1H-pyrazole-5-carboxamide] | 0.080(0.024–0.152) ppm | – | –
6 | – | – | CNC(=O)c1cc(Cl)cc(C)c1NC(=O)c1cc(Br)nn1-c1ncccc1Cl [Chlo, chlorantraniliprole] | 0.033(0.006–0.059) ppm | 3 to 15 nM | 6 to 14 nM
